Values quoted from earlier work, collected in patent publication US20140243296A1, “Organic Compounds” (Jagotec AG, priority 2011, published 2014).

Tests used:
[1] = qualitative
CYP 3A4 isoform = CYP 3A4 isoform (Homo sapiens, UniProt P08684); settings: qualitative, prior-art knowledge
P-glycoprotein (Pgp) = P-glycoprotein (Pgp) (Homo sapiens, UniProt P08183); settings: qualitative, prior-art knowledge
Chain of P-glycoprotein (Pgp) (P08183 whole entry): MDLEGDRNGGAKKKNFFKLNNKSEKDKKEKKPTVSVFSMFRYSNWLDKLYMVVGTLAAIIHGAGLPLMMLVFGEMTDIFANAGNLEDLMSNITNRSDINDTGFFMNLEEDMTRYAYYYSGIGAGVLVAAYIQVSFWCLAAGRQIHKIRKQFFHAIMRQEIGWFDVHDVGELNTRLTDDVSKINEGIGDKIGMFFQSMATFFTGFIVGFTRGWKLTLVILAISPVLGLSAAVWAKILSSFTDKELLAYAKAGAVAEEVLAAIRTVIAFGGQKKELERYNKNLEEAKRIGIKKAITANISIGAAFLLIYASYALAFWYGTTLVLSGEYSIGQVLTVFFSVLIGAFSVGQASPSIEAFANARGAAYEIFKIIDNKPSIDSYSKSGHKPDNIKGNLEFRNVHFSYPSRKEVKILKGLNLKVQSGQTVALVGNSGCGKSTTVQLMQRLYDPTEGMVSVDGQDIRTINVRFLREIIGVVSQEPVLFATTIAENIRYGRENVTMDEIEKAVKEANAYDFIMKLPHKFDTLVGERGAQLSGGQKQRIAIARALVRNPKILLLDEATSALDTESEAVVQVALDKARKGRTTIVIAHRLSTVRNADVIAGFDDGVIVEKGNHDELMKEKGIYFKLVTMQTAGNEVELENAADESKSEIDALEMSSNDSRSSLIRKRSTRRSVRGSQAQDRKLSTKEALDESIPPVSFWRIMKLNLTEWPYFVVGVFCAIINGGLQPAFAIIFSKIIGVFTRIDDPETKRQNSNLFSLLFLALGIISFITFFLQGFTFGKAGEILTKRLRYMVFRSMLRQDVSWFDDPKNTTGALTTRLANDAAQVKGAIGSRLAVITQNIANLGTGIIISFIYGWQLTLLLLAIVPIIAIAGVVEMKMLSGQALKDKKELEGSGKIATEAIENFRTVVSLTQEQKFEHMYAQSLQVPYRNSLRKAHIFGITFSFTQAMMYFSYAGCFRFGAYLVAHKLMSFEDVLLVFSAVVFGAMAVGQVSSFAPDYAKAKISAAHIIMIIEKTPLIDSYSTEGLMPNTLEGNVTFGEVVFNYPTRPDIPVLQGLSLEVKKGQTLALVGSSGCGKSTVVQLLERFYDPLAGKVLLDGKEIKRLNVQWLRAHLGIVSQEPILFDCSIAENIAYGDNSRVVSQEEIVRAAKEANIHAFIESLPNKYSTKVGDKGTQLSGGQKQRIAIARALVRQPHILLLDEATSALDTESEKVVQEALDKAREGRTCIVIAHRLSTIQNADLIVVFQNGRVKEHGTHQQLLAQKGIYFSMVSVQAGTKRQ

Chain of CYP 3A4 isoform (P08684 whole entry, canonical isoform): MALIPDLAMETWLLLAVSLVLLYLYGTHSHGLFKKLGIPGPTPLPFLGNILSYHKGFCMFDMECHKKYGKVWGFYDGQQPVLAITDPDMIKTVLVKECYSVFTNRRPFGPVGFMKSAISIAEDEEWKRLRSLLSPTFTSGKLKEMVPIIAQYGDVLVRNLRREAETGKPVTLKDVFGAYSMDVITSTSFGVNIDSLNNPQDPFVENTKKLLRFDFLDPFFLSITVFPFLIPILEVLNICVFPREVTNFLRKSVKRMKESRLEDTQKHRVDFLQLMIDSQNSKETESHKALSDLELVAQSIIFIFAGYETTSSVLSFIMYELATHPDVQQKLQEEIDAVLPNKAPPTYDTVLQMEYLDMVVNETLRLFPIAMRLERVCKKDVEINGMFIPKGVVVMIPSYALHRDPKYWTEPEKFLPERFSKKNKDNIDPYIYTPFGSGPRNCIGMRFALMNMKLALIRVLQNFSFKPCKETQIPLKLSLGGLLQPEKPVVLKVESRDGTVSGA

SMILES | inhibition of / affinity towards CYP, particularly CYP 3A4 isoform (CYP 3A4 isoform) | further results
CC(C)CN(C[C@@H](O)[C@H](Cc1ccccc1)NC(=O)O[C@H]1CO[C@H]2OCC[C@H]21)S(=O)(=O)c1ccc(N)cc1 [Darunavir, darunavir] |  | solubility [1]: poorly soluble
CC(C)CN(C[C@@H](O)[C@H](Cc1ccccc1)NC(=O)O[C@H]1CCOC1)S(=O)(=O)c1ccc(N)cc1 [amprenavir] | weak inhibitors | 
CC(C)(C)NC(=O)[C@@H]1CN(Cc2cccnc2)CCN1C[C@@H](O)C[C@@H](Cc1ccccc1)C(=O)N[C@H]1c2ccccc2C[C@H]1O [indinavir] |  | inhibitory effect on / affinity for Pgp (P-glycoprotein (Pgp)): substantially no inhibitory effect
Cc1c(O)cccc1C(=O)N[C@@H](CSc1ccccc1)[C@H](O)CN1C[C@H]2CCCC[C@H]2C[C@H]1C(=O)NC(C)(C)C [nelfinavir] | modest inhibition | 
CC(C)(C)NC(=O)[C@@H]1C[C@@H]2CCCC[C@@H]2CN1C[C@@H](O)[C@H](Cc1ccccc1)NC(=O)[C@H](CC(N)=O)NC(=O)c1ccc2ccccc2n1 [saquinavir] | weak inhibitors | 
